The target of one test is T1, CDK4/cyclin D3 (Homo sapiens, UniProt P11802).
T1 construct: purchased Carna Biosciences, Inc. QS S Assist CDK4/Cyclin D3_FP Kit
Description: Human CDK4/cyclin D3 inhibitory activity (QS S Assist CDK4/Cyclin D3_FP Kit, IMAP fluorescence polarization). As to conditions: 50% inhibitory concentration against CDK4/cyclin D3, given as class symbol. It is filed as biochemical. A digest of the protocol:
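IMAP fluorescence polarization kit: CDK4/cyclin D3 at 12.5-25 ng/well with kit ATP/substrate/metal mix in 20 mM HEPES pH 7.4, 0.01% Tween20, 2 mM DTT, 45 min at room temperature. FP read at 485/535 nm after 30 min binding; IC50 from dose-response fit of percent inhibition versus enzyme and no-enzyme controls.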
A general note: Fluorescence polarisation rises when a labelled molecule tumbles more slowly, as on binding a larger partner.

Another test has as its target T2, CDK2/cyclin A2 (Homo sapiens, UniProt P24941).
T2 construct: purchased Carna Biosciences, Inc. QS S Assist CDK2/Cyclin A2_FP Kit
Put plainly: Human CDK2/cyclin A2 inhibitory activity (QS S Assist CDK2/Cyclin A2_FP Kit, IMAP fluorescence polarization). It is filed as biochemical. As to conditions: 50% inhibitory concentration against CDK2/cyclin A2, given as class symbol. The method in brief: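 Kinase activity read as fluorescence polarization (485/535 nm) after phosphorylated fluorescent substrate binds IMAP reagent (30 min, RT, dark). Enzyme (2.5 ng/well) reacted 60 min at RT with ATP/substrate/metal in HEPES pH 7.4 buffer with Tween 20 and DTT; no-enzyme wells define 0% activity; IC50 by curve fit.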

A value given as a limit tells only on which side of the number the result lay.

T1 sequence (P11802 whole entry): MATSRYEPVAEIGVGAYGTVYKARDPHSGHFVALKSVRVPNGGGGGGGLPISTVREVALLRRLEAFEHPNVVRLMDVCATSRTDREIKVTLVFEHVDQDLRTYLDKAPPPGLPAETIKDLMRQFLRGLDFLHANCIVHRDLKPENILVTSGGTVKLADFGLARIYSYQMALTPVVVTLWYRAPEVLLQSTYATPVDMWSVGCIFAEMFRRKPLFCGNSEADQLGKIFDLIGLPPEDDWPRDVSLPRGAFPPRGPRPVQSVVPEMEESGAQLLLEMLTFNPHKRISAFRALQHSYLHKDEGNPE
T1 sequence (P30281 whole entry partner): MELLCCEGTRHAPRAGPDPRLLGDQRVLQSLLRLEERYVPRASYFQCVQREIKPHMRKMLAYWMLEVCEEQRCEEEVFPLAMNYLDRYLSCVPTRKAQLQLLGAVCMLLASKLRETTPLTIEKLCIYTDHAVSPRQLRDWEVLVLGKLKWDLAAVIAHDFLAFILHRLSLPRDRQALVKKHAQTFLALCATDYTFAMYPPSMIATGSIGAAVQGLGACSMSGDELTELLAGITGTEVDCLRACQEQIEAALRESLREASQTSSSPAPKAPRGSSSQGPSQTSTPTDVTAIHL

One may read the IC50 as the concentration at which inhibition is half-maximal. The low end stands for greater potency, the high end for weaker potency. Consider `COC1CCN(c2ccc(Nc3ncc4cc([C@@H](C)O)nc(NC(C)C)c4n3)nn2)CC1` [Compound 761], for which the figures for the IC50 against CDK4/cyclin D3 and on CDK2/cyclin A2 were < 10 nM and ≥ 100 nM, respectively.
In the same order, the values of `COC1CCN(c2ccc(Nc3ncc4cc([C@@H](C)O)nc(N[C@H]5CCCOC5)c4n3)nn2)CC1` [Compound 762] are < 10 nM and ≥ 100 nM.
As to `CC(C)Nc1nc(C2CCOC2)cc2cnc(Nc3ccc(N4CCNCC4=O)cn3)nc12` (stereo not shown) [Compound 763], the results for the IC50 against CDK4/cyclin D3 and on CDK2/cyclin A2 were < 10 nM and ≥ 100 nM, respectively.
In the same order, the values of `CC(C)Nc1nc([C@@H](C)O)cc2cnc(Nc3ccc(N4CCNCC4C(F)(F)F)cn3)nc12` (stereo partly shown) [Compound 764] are < 10 nM and ≥ 100 nM.
The matching figures for `CC(C)Nc1nc([C@@H](C)O)cc2cnc(Nc3ccc(N4CCN[C@@H](C(C)C)C4=O)cn3)nc12` [Compound 765]: < 10 nM and ≥ 100 nM.
In the same order, the values of `CC(C)Nc1nc([C@@H](C)O)cc2cnc(Nc3ccc(N4CCN[C@H](C(C)C)C4=O)cn3)nc12` [Compound 766] are 10 to 100 nM and ≥ 100 nM.
Take `CC(C)Nc1nc([C@@H](C)O)cc2cnc(Nc3ccc(N4CCN(C(=O)OC(C)C)CC4)nn3)nc12` [Compound 767]: the IC50 against CDK4/cyclin D3 was < 10 nM; at CDK2/cyclin A2 it was ≥ 100 nM.
For the compound `CC(C)Nc1nc([C@@H](C)O)cc2cnc(Nc3ccc(NC(=O)C4CCNCC4)cn3)nc12` [Compound 768], the results for the IC50 on CDK4/cyclin D3 and against CDK2/cyclin A2 were < 10 nM and ≥ 100 nM, respectively.
For `CC(C)Nc1nc([C@@H](C)O)cc2cnc(Nc3ccc(NC(=O)C4CCCNC4)cn3)nc12` (stereo partly shown) [Compound 769], the IC50 on CDK4/cyclin D3 was < 10 nM; at CDK2/cyclin A2, ≥ 100 nM.
In the same order, the values of `CC(C)Nc1nc([C@@H](C)O)cc2cnc(Nc3ccc(CN4CCC(C(=O)O)CC4)cn3)nc12` [Compound 770] are 10 to 100 nM and ≥ 100 nM.
In the same order, the values of `C[C@@H](O)c1cc2cnc(Nc3ccc(N4CCNCC4=O)cn3)nc2c(NC23CC(C2)C3)n1` [Compound 771] are < 10 nM and ≥ 100 nM.
In the same order, the values of `CC(C)Nc1nc([C@@H](C)O)cc2cnc(Nc3ccc(O[C@@H]4CCC[C@H]4N)cn3)nc12` [Compound 772] are < 10 nM and ≥ 100 nM.
With `CC(C)Nc1nc([C@@H](C)O)cc2cnc(Nc3ccc(N4CCNC(C(F)(F)F)C4)cn3)nc12` (stereo partly shown) [Compound 777], the IC50 is < 10 nM at CDK4/cyclin D3 and ≥ 100 nM against CDK2/cyclin A2.
The matching figures for `Cc1cc(Nc2ncc3cc([C@@H](C)O)nc(NC(C)C)c3n2)ncc1N1CCNCC1=O` [Compound 780]: 10 to 100 nM and ≥ 100 nM.
In the same order, the values of `CC(CN(C)C)Oc1ccc(Nc2ncc3cc([C@@H](C)O)nc(N[C@H]4CCCOC4)c3n2)nc1` (stereo partly shown) [Compound 781] are < 10 nM and ≥ 100 nM.
The matching figures for `C[C@@H](O)c1cc2cnc(Nc3ccc(OC[C@@H]4CCCN4)cn3)nc2c(N[C@H]2CCCOC2)n1` [Compound 782]: < 10 nM and ≥ 100 nM.
Take `C[C@@H](O)c1cc2cnc(Nc3ccc(OC[C@H]4CCCN4)cn3)nc2c(N[C@H]2CCCOC2)n1` [Compound 783]: the results for the IC50 against CDK4/cyclin D3 and on CDK2/cyclin A2 were < 10 nM and ≥ 100 nM, respectively.
In the same order, the values of `CC(C)Nc1nc([C@@H](C)O)cc2cnc(Nc3ccc(N4CCC5(CCNCC5)C4=O)cn3)nc12` [Compound 784] are < 10 nM and ≥ 100 nM.
Take `COC[C@@H](C)Nc1nc([C@@H](C)O)cc2cnc(Nc3ccc(OCCN(C)C)cn3)nc12` [Compound 785]: the results for the IC50 against CDK4/cyclin D3 and against CDK2/cyclin A2 were < 10 nM and ≥ 100 nM, respectively.
The matching figures for `C[C@@H](O)c1cc2cnc(Nc3ccc(O[C@H]4CC[C@H](N(C)C)CC4)cn3)nc2c(N[C@H]2CCCOC2)n1` [Compound 786]: < 10 nM and ≥ 100 nM.
The matching figures for `C[C@@H](O)c1cc2cnc(Nc3ccc(O[C@H]4CC[C@@H](N(C)C)CC4)cn3)nc2c(N[C@H]2CCCOC2)n1` [Compound 787]: < 10 nM and ≥ 100 nM.
In the same order, the values of `CC(C)Nc1nc([C@@H](C)O)cc2cnc(Nc3ccc(NC(=O)C4CCCCN4)cn3)nc12` (stereo partly shown) [Compound 788] are < 10 nM and ≥ 100 nM.
As to `CC(C)Nc1nc([C@@H](C)O)cc2cnc(Nc3cnc(N4CCNCC4)cn3)nc12` [Compound 789], the figures for the IC50 against CDK4/cyclin D3 and against CDK2/cyclin A2 were < 10 nM and ≥ 100 nM, respectively.
`CC(C)Nc1nc([C@@H](C)O)cc2cnc(Nc3ccc(C4CCN(C(C)(C)C(=O)O)CC4)nn3)nc12` [Compound 790]: the figures for the IC50 against CDK4/cyclin D3 and at CDK2/cyclin A2 were < 10 nM and ≥ 100 nM, respectively.
With `C[C@@H](O)c1cc2cnc(Nc3ccc(N4CCNCC4)nn3)nc2c(NC(C)(C)C)n1` [Compound 791], the IC50 is < 10 nM on CDK4/cyclin D3 and 10 to 100 nM against CDK2/cyclin A2.
The matching figures for `CC(C)Nc1nc([C@@H](C)O)cc2cnc(Nc3ccc(N4CCC(C(=O)O)CC4)nn3)nc12` [Compound 792]: 10 to 100 nM and ≥ 100 nM.
The matching figures for `CC(C)Nc1nc([C@@H](C)O)cc2cnc(Nc3ccc(N4CCCC(C(=O)O)C4)nn3)nc12` (stereo partly shown) [Compound 793]: 10 to 100 nM and ≥ 100 nM.
In the same order, the values of `CC(C)Nc1nc([C@@H](C)O)cc2cnc(Nc3ccc(N4CCC(C(C)(C)C(=O)O)CC4)nn3)nc12` [Compound 794] are < 10 nM and ≥ 100 nM.
`C[C@@H](O)c1cc2cnc(Nc3ccc(N4CCNCC4=O)cn3)nc2c(NC(C)(C)C)n1` [Compound 795]: the 50% inhibitory concentration (IC50) at CDK4/cyclin D3 is < 10 nM; at CDK2/cyclin A2, 10 to 100 nM.
Regarding `CC(C)Nc1nc([C@@H](C)O)cc2cnc(Nc3ccc(C4CCN(C(C)(C)C(=O)O)CC4)cn3)nc12` [Compound 796], the IC50 at CDK4/cyclin D3 was < 10 nM; against CDK2/cyclin A2, ≥ 100 nM.
For `CC(C)Nc1nc([C@@H](C)O)cc2cnc(Nc3ccc(N4CCC(CC(=O)O)CC4)nn3)nc12` [Compound 797], the figures for the IC50 against CDK4/cyclin D3 and against CDK2/cyclin A2 were 10 to 100 nM and ≥ 100 nM, respectively.
In the same order, the values of `CC(C)Nc1nc([C@@H](C)O)cc2cnc(Nc3ccc(C4COCCN4)cn3)nc12` (stereo partly shown) [Compound 798] are < 10 nM and ≥ 100 nM.
Consider `CNC1CCCC1Oc1ccc(Nc2ncc3cc(C(C)O)nc(NC(C)C)c3n2)nc1` (stereo not shown) [Compound 799], for which the IC50 was < 10 nM against CDK4/cyclin D3 and ≥ 100 nM on CDK2/cyclin A2.
In the same order, the values of `C[C@@H](O)c1cc2cnc(Nc3ccc(OCC4CNC4)cn3)nc2c(N[C@H]2CCCOC2)n1` [Compound 800] are < 10 nM and ≥ 100 nM.
As to `CNC1CCCC1Oc1ccc(Nc2ncc3cc(C(C)O)nc(NC(C)C)c3n2)nc1` (stereo not shown) [Compound 801], the IC50 against CDK4/cyclin D3 is < 10 nM; at CDK2/cyclin A2, ≥ 100 nM.
The matching figures for `C[C@@H](O)c1cc2cnc(Nc3ccc(OCC4CCN4)cn3)nc2c(N[C@H]2CCCOC2)n1` (stereo partly shown) [Compound 802]: < 10 nM and ≥ 100 nM.
In the same order, the values of `C[C@@H](O)c1cc2cnc(Nc3ccc(O[C@H]4CCNC4)cn3)nc2c(N[C@H]2CCCOC2)n1` [Compound 803] are < 10 nM and ≥ 100 nM.
In the same order, the values of `CC(C)Nc1nc([C@@H](C)O)cc2cnc(Nc3ccc(N4CCOCC4=O)cn3)nc12` [Compound 804] are < 10 nM and ≥ 100 nM.
For `C[C@@H](O)c1cc2cnc(Nc3ccc(O[C@@H]4CCNC4)cn3)nc2c(N[C@H]2CCCOC2)n1` [Compound 805], the IC50 at CDK4/cyclin D3 is < 10 nM; against CDK2/cyclin A2, ≥ 100 nM.
In the same order, the values of `O=C(O)C1CCN(Cc2ccc(Nc3ncc4cc(C(F)F)nc(N[C@H]5CCCOC5)c4n3)nc2)CC1` [Compound 806] are < 10 nM and ≥ 100 nM.
The matching figures for `CC(C)Nc1nc(C2CCCOC2)cc2cnc(Nc3ccc(N4CCNCC4=O)cn3)nc12` (stereo not shown) [Compound 807]: 10 to 100 nM and ≥ 100 nM.
In the same order, the values of `CC(C)Nc1nc([C@@H](C)O)cc2cnc(Nc3ccc(-c4cnn(C5CCNCC5)c4)cn3)nc12` [Compound 808] are < 10 nM and ≥ 100 nM.
`CC(C)Nc1nc([C@@H](C)O)cc2cnc(Nc3ccc(N4CCN(CCO)CCC4=O)cn3)nc12` [Compound 811]: the IC50 on CDK4/cyclin D3 was < 10 nM; against CDK2/cyclin A2, 10 to 100 nM.
The matching figures for `CCNc1nc([C@@H](C)O)cc2cnc(Nc3ccc(N4CCNCC4=O)cn3)nc12` [Compound 812]: 10 to 100 nM and ≥ 100 nM.
The matching figures for `CCCCNc1nc([C@@H](C)O)cc2cnc(Nc3ccc(N4CCNCC4=O)cn3)nc12` [Compound 813]: < 10 nM and ≥ 100 nM.
The matching figures for `CCCNc1nc([C@@H](C)O)cc2cnc(Nc3ccc(N4CCNCC4=O)cn3)nc12` [Compound 814]: < 10 nM and ≥ 100 nM.
With `Cc1nc(Nc2ncc3c(Cl)c([C@@H](C)O)nc(NC(C)C)c3n2)ccc1N1CCNCC1=O` [Compound 815], the IC50 on CDK4/cyclin D3 is < 10 nM; against CDK2/cyclin A2, ≥ 100 nM.
In the same order, the values of `CCNc1nc([C@@H](C)OC)cc2cnc(Nc3ccc(CN4CCNCC4)cn3)nc12` [Compound 816] are < 10 nM and ≥ 100 nM.
The matching figures for `CCNc1nc([C@@H](C)OC)cc2cnc(Nc3ccc(N4CCNCC4)nn3)nc12` [Compound 817]: < 10 nM and ≥ 100 nM.
For `CCNc1nc(C(F)F)cc2cnc(Nc3ccc(N4CCNCC4=O)cn3)nc12` [Compound 820], the IC50 is < 10 nM on CDK4/cyclin D3 and 10 to 100 nM against CDK2/cyclin A2.

Values taken from patent US10124004B2, “Pyrido[3,4-d]pyrimidine derivative and pharmaceutically acceptable salt thereof” (Teijin Pharma Limited, priority 2015, dated 2018).
